Biological target: PAK1 (Homo sapiens, UniProt Q13153)
Assay: Z'-LYTE kinase assay, Ser/Thr […] peptide
Format: biochemical

PAK1, sequence (Q13153 2-545): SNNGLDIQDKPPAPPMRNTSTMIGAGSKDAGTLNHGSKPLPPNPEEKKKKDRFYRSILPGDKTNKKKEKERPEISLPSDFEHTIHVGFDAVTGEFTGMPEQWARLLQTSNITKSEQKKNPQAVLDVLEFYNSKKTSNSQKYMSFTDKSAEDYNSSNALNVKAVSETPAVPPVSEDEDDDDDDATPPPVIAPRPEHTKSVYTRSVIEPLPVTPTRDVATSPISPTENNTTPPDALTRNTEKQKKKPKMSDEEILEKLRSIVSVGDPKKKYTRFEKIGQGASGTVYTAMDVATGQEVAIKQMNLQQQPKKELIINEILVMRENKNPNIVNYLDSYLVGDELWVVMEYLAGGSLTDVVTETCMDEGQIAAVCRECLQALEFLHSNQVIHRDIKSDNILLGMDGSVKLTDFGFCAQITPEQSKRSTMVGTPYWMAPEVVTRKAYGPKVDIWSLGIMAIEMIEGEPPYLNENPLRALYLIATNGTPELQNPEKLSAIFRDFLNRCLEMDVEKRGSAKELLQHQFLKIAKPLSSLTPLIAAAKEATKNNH

- IC50: 15.3 µM
Structure (SMILES): Cc1ccc2[nH]c(=O)c3cc(C(=O)NCCCN(C)Cc4ccccc4)sc3c2c1 [CP734, N-[3-(benzyl-methylamino)propyl]-8-methyl-4-oxo-5H-thieno[4,5-c]quinoline-2-carboxamide]
